Read-outs that look alike come from different tables or passages of the source.
Key:
[1] = system: AIDS-related lymphoma / lymphoma cells; test: Activity against lymphoma cells in vitro; format: cell-based; conditions: Table 1B
[2] = system: human prostate cancer tumors; test: Activity in prostate cancer in SCID mouse model; format: in vivo, human tumors in SCID mice; conditions: Table 1B
[3] = system: transplanted tumors; conditions: rodents; cited from earlier work
[4] = system: multiple myeloma (clonogenic assay); conditions: cited from earlier work
[5] = Oral activity in mice; format: in vivo
[6] = Myelosuppression; conditions: in vivo
[7] = system: 8226/S myeloma cells; test: MTT growth inhibition, parental 8226 myeloma cells; format: cell-based, human; conditions: Homo sapiens, read-out: IC50
Experimental: (§1) Microculture Tetrazolium (MTT) Assay for Tumor Cells
(§2) Tumors are disaggregated into single cell suspensions using mechanical, hypoosmotic, and/or enzymatic (trypsin) methods. The cells are plated at a concentration of 3-5×10^4 per […] well into plastic 96-well plates. Growth medium containing 5-10% (vol/vol) heat-inactivated fetal bovine serum and penicillin/streptomycin (both […]) are added prior to incubation at 37° C. for 6 days. Afterwards the medium containing the drug is removed, the cells are centrifuged in fresh medium or phosphate-buffered saline (pH 7.4). A tetrazolium dye, […]-2,5-diphenyl tetrazolium (MTT), is then added. (Mossman, T., J Immunol 65:55-63, 1983.) This dye forms a colored formazan product upon activation by mitochondrial reductases in viable cells. Typically, the formazan product is solubilized in acid-propanol or DMSO. The intensity of the color is proportional to viable cell numbers and this is quantitated by spectrophotometric absorbance at 570 nm on a micro ELISA plate reader. The results are calibrated in % control absorbance from untreated tumor cells. (Alley, et al., Cancer Res 48:589-601, 1988.)
(§3) The following unpublished studies were performed in vitro to develop and characterize a human myeloma cell line with resistance to imexon-induced cytotoxicity. The original (parental) 8226 cell line was developed by Matsuoka, et al. (Matsuoka, et al., Proc Soc Exp Biol Med 125:1246-1250, 1967). It is a lymphoblastoid cell line which stains for lambda light immunoglobulin production. It grows in vitro in suspension culture (non-adherent) and forms tumors when injected into SCID mice. (Skehan, et al., J Natl Cancer Inst 82:1107-1112, 1990.)
(§4) One exciting feature of our novel compounds is, that they work on imexon-resistant cells. An imexon-resistant 8226 myeloma cell line was selected by continuously exposing cells to gradually increasing concentrations of imexon up to 3.25 mg/mL. This cell line has slightly longer cell doubling time than 8226 sensitive cells (24 vs 20 hours). […] The dose response curve for imexon continuous exposure was determined using MTT assay. Each data point represents the mean of three experiments performed in 8 replicates.
(§5) We compared IC50 concentrations and there is a 4-fold resistance observed for the 8226/I-R cell line when the cells were continuously exposed to imexon for […] at 37° C. The degree of resistance was relatively unstable in the absence of the drug, with the resistant cells losing substantial resistance when maintained in imexon-free medium for 20 weeks (FIG. 2).
(§6) IC50 was measured by MTT assay. IC50 refer to the concentration by drug that results in 50% growth inhibition. A minimum of 2 assays were performed for each drug following 250 mg/mL imexon is equivalent to 6.5 cGy radiation in sensitive cells.
(§7) Using the colorimetric microculture tetrazolium (MTT) assay, imexon and 25-related analogs were studied for tumor growth inhibition in vitro. Imexon-induced DNA single strand breaks were assessed by alkaline elution. Cells were exposed to imexon for 1 hour prior to start of experiment. The fraction of ^14 C-labeled DNA retained on the filter is plotted against the time of elution. The cells included parental 8226 myeloma cells and the 8226 imexon-resistant cells exposed to drug (imexon or analog) continuously for 10 days at 37° C. At the end of the exposure period, the cells were analyzed for viability using the formazan-forming tetrazolium dye (MTT) assay.

[8] = system: 8226/I-R myeloma cells; test: MTT growth inhibition, imexon-resistant 8226 myeloma cells; format: cell-based, human; conditions: for IC50: Homo sapiens, read-out: IC50; for Fold Resistance (IC50 resistant cells/IC50 sensitive cells): Table 4, 8226/I-R vs 8226/S
Experimental: as §1, §2, §3, §4, §5, §6, §7

[9] = background statement; cited from earlier work
[10] = system: human lymphoma, melanoma, and prostate cancer cell lines; conditions: cited from earlier work
[11] = cited from earlier work
[12] = system: advanced solid tumors in cancer patients; conditions: cited from earlier work; for Clinical response: Phase I clinical trials
[13] = system: DNA of 8226 myeloma cells; test: Imexon-induced DNA single strand breaks by alkaline elution; format: cell-based, human; conditions: for DNA single strand breaks: 8226 cells, 10-500 μg/mL
Experimental: as §7
These strand breaks are noted by an enhanced rate of ^14 C-DNA elution through the filters after a one-hour exposure to imexon (10-500 μg/mL) at 30° C. At high imexon concentrations of≥100 μg/mL, over 75% of the radiolabeled DNA is eluted through the filters over the test period. By comparison, control cell DNA is highly retained (>95%) on the filter over the same 24-hour elution period.

[14] = system: human tumor cell lines; conditions: in culture; cited from earlier work
[15] = Tolerability and activity on prolonged dosing in tumor-bearing mice and dogs; format: in vivo; conditions: suggested by prior studies in mice and dogs
[16] = system: mast cell tumors; conditions: cited from earlier work
[17] = system: L-1210 MDR leukemia cells; conditions: cited from earlier work
[18] = system: MCF-7/ADR cells; conditions: cited from earlier work
[19] = system: WiDr MITOX cells; conditions: cited from earlier work
[20] = system: MCF-7/MITOX cells; conditions: cited from earlier work
[21] = system: OVCAR-3 ovarian carcinoma cells; conditions: cited from earlier work
[22] = system: MCF-7/D40 cells; conditions: MCF-7/DOX40; cited from earlier work

N=C1NC(=O)N2CC12 (stereo not shown) [AMP 400, 4-imino-1,3-diazabicyclo[3.1.0]hexan-2-one]
Activity in lymphoma in vitro [1]: active in vitro | Activity in prostate cancer [2]: active in | Activity against transplanted tumors [3]: active against a variety of transplanted tumors in rodents | Cytotoxicity to multiple myeloma [4]: selectively cytotoxic to multiple myeloma in the clonogenic assay | Oral activity [5]: not active orally in mice | Myelosuppression [6]: has not demonstrated myelosuppressive toxicity | IC50 ([7]; 8226/S, MTT): 27 µM | IC50 ([7]; Table 5, Sensitive (parental) 8226): 1 µg/mL | IC50 ([8]; 8226/I-R, MTT): 120 µM | IC50 ([8]; Table 5, imexon-resistant 8226): 8.5 µg/mL | Fold Resistance (IC50 resistant cells/IC50 sensitive cells) [8]: 4.44 | Fold Resistance of IC50 R/IC50 's ([8]; Table 5, imexon-resistant vs sensitive 8226): 4.5 | Fold resistance ([8]; continuous exposure for 5 days at 37° C): 4 fold | Myelosuppression [9]: not myelosuppressive | Activity against human tumor cell lines in SCID mice [10]: active against human lymphoma, melanoma, and prostate cancer cell lines in SCID mice | Tolerability ([11]; Phase I, Europe, 1985): well tolerated | Nausea (mild, transient) ([11]; patients): 13% | Vomiting ([11]; patients): 23% | Clinical response ([12]; listed as Imexon): produced objective responses or stabilized neoplastic diseases in cancer patients | Clinical response ([12]; listed as parent compound): parent compound | Additional patients with disease stabilization ([12]; advanced tumors): 8 patients | Duration of disease stabilization ([12]; advanced tumors): 4-24 months | Objective responses, evaluable patients ([12]; breast cancer): 1/7 | Duration of complete disappearance of measurable disease ([12]; lung cancer): 33 months | Objective responses, evaluable patients ([12]; lung cancer): 1/7 | Duration of complete disappearance of measurable disease ([12]; melanoma): 42 months | Objective responses, evaluable patients ([12]; melanoma): 1/7 | Stable disease, number of patients ([12]; one NSCLC, four breast cancer, one liver cancer): 6 patients | Duration of complete remission ([12]; one patient, metastatic NSCLC): over 14 years | DNA single strand breaks ([13]; one-hour exposure, listed as Imexon): induced single strand breaks in both 8226 imexon-sensitive and resistant cells | DNA single strand breaks ([13]; one-hour exposure, listed as imexon): induces concentration-dependent single-stranded breaks in tumor cell DNA | DNA strand breaks, resistant vs sensitive cells ([13]; given dose of imexon, p<0.05): fewer strand breaks in imexon-resistant cells than in sensitive cells | Radiolabeled DNA eluted over the test period ([13]; imexon ≥100 μg/mL, one-hour exposure): over 75% | Radiation equivalent of 250 mg/mL imexon ([13]; sensitive cells, 250 μg/mL imexon): 6.5 cGy | Activity against human tumor cell lines [14]: active against a variety of human tumor cell lines in culture | Maximally-tolerated human dose [15]: approximately 500 mg/m^2 /day | Objective responses in dogs [16]: Objective responses were observed in dogs with mast cell tumors

COc1cccc2c1C(=O)c1c(O)c3c(c(O)c1C2=O)C[C@@](O)(C(=O)CO)C[C@@H]3O[C@H]1C[C@H](N)[C@H](O)[C@H](C)O1 [Doxorubicin]
Cross-resistance of L-1210 MDR [17]: cross-resistant | Decrease in sensitivity to doxorubicin [18]: 192 fold | Fold resistance of WiDr MITOX cells [19]: 8 fold | IC50 ([7]; 8226/S, MTT): 0.00043 µM | Cross-resistance of imexon-resistant cells ([8]; 8226 imexon-resistant cells, MTT): remains sensitive | IC50 ([8]; 8226/I-R, MTT): 0.00032 µM | Fold Resistance (IC50 resistant cells/IC50 sensitive cells) [8]: 0.79 | Resistance of MCF-7/MITOX [20]: only partially resistant | Resistance of OVCAR-3 [21]: resistant in vitro to clinically relevant concentrations

COc1ccc(CCN(C)CCCC(C#N)(c2ccc(OC)c(OC)c2)C(C)C)cc1OC (stereo not shown) [verapamil]
Reversal of resistance [17]: resistance can be reversed | Reversal of resistance [22]: sensitized (resistance reversed) | Reversal of resistance [20]: resistance is not modulated (reversed)
